The record followed here is the NIST ThermoML archive (doi:10.1021/acs.jced.7b00333).

The conditions of data set [1]: Crystal; DTA.
Data set [2] in a line: Molar enthalpy of transition or fusion. The note with it: Crystal; DSC.

± gives the expanded uncertainty stated by the source.

Turning to `COc1cc(C(=O)O)cc(OC)c1O` [4-hydroxy-3,5-dimethoxybenzoic acid], the Normal melting temperature in data set [1] came to 212.7 ± 1.1 °C. Besides, in data set [2], the “Molar enthalpy of transition or fusion” value amounted to 7.98 ± 0.359 kcal/mol.
